US20080009451A1, “Applications of kidney secreted bone growth factor and pharmaceutical use of flavonol and flavonol glycosides for stimulating the secretion of kidney secreted bone growth factor” (priority 2005, published 2008)
“Also recorded” adds a separate entry of the source.

How the values were obtained:
[1] = test system: opossum kidney (OK) cell; assay: Renal tubular (OK) cell proliferation, CellTiter 96 at OD570; assay type: cell-based; details: compound added to OK cells, 0-60 nM (0-79 nM) or various concentrations, three days incubation (24 hours in Example 3.2)
Experimental: Flavonol Increased Renal Tubular Cell Proliferation Ok cells at 1×10^4/ml (0.1 ml) were added into 96 wells plate. Several flavonol ? Fisetin, ? Kaempferol, ? quercetin a ? ? icariin or the control flavonoid (which are not flavonol) such as apigenin and kaempferol-3-methyl ether were added to make the final concentration at 0-60 nM. (0-79 nM)
After three days incubation, the cell growth was examined with CellTiter 96 (Non-Radioactive Cell Proliferation Assay kit) (Promega) at OD570 nm. The higher OD, the higher the numbers of living cells. (FIG. 2.)
OK cell, MC 3T3 E1 and HHF cells at 2×10^4/ml (0.1 ml) were added into 96 well plates, with various concentration of kaempferol was applied. After the cells were cultured for 3 days, cell growth was examined.
Preparation of OKM and CM: OK cells at 2×10^4/ml (0.1 ml) mixed with various concentrations of kaempferol were incubated in 96 well plate. The medium made of the same condition as above without OK cells was also incubated in the 96 well plates. After 24 hour, the mediums were collected. The OK cell growth was examined.

[2] = test system: human heart fibroblast (HHF/HFF); assay: Fibroblast proliferation in OK cell conditioned medium (OKM); assay type: cell-based; details: OK cells incubated 24 hours with compound; medium on human heart fibroblast; 3 days
Experimental: (§1) In this example, OK cells were used as the kidney tubular cell. OK cells at 6×10^4ml (3 ml) were added into 6 wells plate and various concentrations of flavonol, flavonol glycosides, apigenin and isokaempferol were applied. At the same time, the control culture medium (CM) with the same condition as above but without cells was prepared. After 24 hours incubation, the medium was collected for osteoblast culture. The OK cell growth was examined as discussed above. The preparation of OKM and CM: OK cells at 6×10^4/ml (3 ml) were incubated in 6 well plates over night. After the medium was removed, the fresh medium with or without 70 nM kaempferol was added. The control medium (CM) was prepared under the same condition, without OK cells. After incubation for 24 hour, all medium were collected for MC 3T3 E1 and HFF cell growth experiments. MC 3T3 E1 and HFF cell at 1×10^5/ml were added (20 μl) into 96 well plates. In addition, 80 μl of OKM, CM and fresh culture medium with and without kaempferol were applied.

[3] = test system: MC 3T3 E1 cell (osteoblast); assay: Osteoblast proliferation in OK cell conditioned medium (OKM); assay type: cell-based; details: OK cells incubated 24 hours with compound, 80 μl medium on MC 3T3 E1, 3 days
Experimental: as §1, with “above. In this example, the osteoblast was the MC 3T3 E1 cell. MC 3T3 E1 at 1×10^5/ml (20 μl) was added into 96 wells plate. Additionally, 80 μL of OKM or CM were recruited. After 3 days incubation, the osteoblast growth was examined as discussed above. […] OK cells at 2×10^4/ml (0.1 ml) mixed with various concentrations of kaempferol were incubated in 96 well plate. The medium made of the same condition as above without OK cells was also incubated in the 96 well plates. After 24 hour, the mediums were collected. The OK cell growth was examined. MC 3T3 E1 cells at 1×10^5/ml (20 μl) were applied into 96 well plate along with OKM and CM (80 μl). After 3 days incubation, the cell numbers were examined.” for “above.”

[4] = test system: P63; assay: P63 (63 kDa protein) in kaempferol conditioned OKM, over-exposed anti-BMP2/4 Western blot; assay type: cell-based, opossum; details: over-exposed film; not been repeated yet
From the text: Detail of Immune-Precipitation and Detail of Western Blot Used Standard Methods and Anti-BMP 2/4 and 7. 3). […] According to the instruction from the manufacture, anti-BMP2/4 antibody may react with BMP8, 9 and 10 or other proteins. The P63 may be BMP 8, 9, 10 or another protein related to the BMP2/4.

[5] = test system: BMP7; assay: BMP7 in kaempferol conditioned OKM, immune-precipitation and Western blot; assay type: cell-based, opossum; details: Western blot; not been repeated yet
From the text: (§2) Detail of Immune-Precipitation and Detail of Western Blot Used Standard Methods and Anti-BMP 2/4 and 7.

[6] = test system: HHF cells (human heart fibroblast); assay: Direct effect of compound on fibroblast proliferation; assay type: cell-based; details: medium incubated without kidney cells; 70 nM kaempferol; 3 days
Experimental: (§3) OK cell, MC 3T3 E1 and HHF cells at 2×10^4/ml (0.1 ml) were added into 96 well plates, with various concentration of kaempferol was applied. After the cells were cultured for 3 days, cell growth was examined. The preparation of OKM and CM: OK cells at 6×10^4/ml (3 ml) were incubated in 6 well plates over night. After the medium was removed, the fresh medium with or without 70 nM kaempferol was added. The control medium (CM) was prepared under the same condition, without OK cells. After incubation for 24 hour, all medium were collected for MC 3T3 E1 and HFF cell growth experiments. MC 3T3 E1 and HFF cell at 1×10^5/ml were added (20 μl) into 96 well plates. In addition, 80 μl of OKM, CM and fresh culture medium with and without kaempferol were applied.

[7] = test system: BMP2/4; assay: BMP2/4 in kaempferol conditioned OKM, immune-precipitation and Western blot; assay type: cell-based, opossum; details: Western blot; not been repeated yet
From the text: as §2

[8] = test system: MC 3T3 E1 cell (osteoblast); assay: Osteoblast proliferation in human kidney tubular cell (HK-2) conditioned medium (HKM); assay type: cell-based; details: HK-2 cells, 70 nM kaempferol, 24 hours; medium on MC 3T3 E1 for 3 days
Experimental: Human kidney tubular cells (HK-2) with the concentration at 1×10^5/ml (1 mL) grew in 24 well plate overnight. The cells in the wells were washed by 1 mL of PBS three times. Fresh culture medium (80 μL) without FBS but contained 0 and 70 nM kaempferol were added. The same medium without cells also prepared as above. After the samples were cultured for 24 hours, the medium was collected and named respectively 70 […] 0CM. They were used for osteoblast and fibroblast culture. MC 3T3 E1 and HFF cell at 1×10^5/ml were added (20 μl) into 96 wells plate. In addition, 80 μl of 70 […] 0CM were applied.

[9] = test system: BMPR II; assay: BMPR II on OK cells, immunostain and Western blot; assay type: cell-based, opossum
From the text: BMPR I was not found in OK cells sample, BMPR II was found on OK cell. […] Both FIGS. 6A and 6B indicate that kaempferol increases the quantity of BMPR II on OK cell.

[10] = test system: MC 3T3 E1 cell (osteoblast); assay: Direct effect of compound on osteoblast proliferation; assay type: cell-based; details: medium incubated without kidney cells; 70 nM or various concentrations; 3 days
Experimental: as §3

[11] = animal models; cited from earlier work
[12] = acute renal ischemia, unilateral uretheral obstruction, diabetic nephropathy, lupus nephritis models; cited from earlier work

## O=c1cc(-c2ccc(O)cc2)oc2cc(O)cc(O)c12 [Apigenin, apigenin]
[1]
  OK cell proliferation (optic density): did not increase OK cell proliferation
[1]; listed as apigenin
  OK cell proliferation (optic density): showed no effect
[2]
  fibroblast proliferation in compound conditioned-OKM: do not increase human heard fibroblast proliferation
[3]
  osteoblast (MC 3T3 E1) proliferation in compound conditioned-OKM compared with control OKM: did not increase osteoblast proliferation

## O=c1c(O)c(-c2ccc(O)cc2)oc2cc(O)cc(O)c12 [Kaempferol]
[4]
  quantity of P63 in OKM: increased with dose response of kaempferol; also recorded: also increased with the dose of kaempferol
[5]
  quantity of BMP7 in OKM: increased by dose response of kaempferol; also recorded: increased in dose response to kaempferol concentration
[6]
  fibroblast (HHF) proliferation in control medium (CM) or fresh medium containing compound: did not increase human fibroblast proliferation; also recorded: did not promote MC 3T3 E1 and HHF cell proliferation
[7]
  quantity of BMP2/4 in OKM: increased by dose response of kaempferol
[8]
  MC 3T3 E1 proliferation in kaempferol conditioned HKM compared with 0HKM: increased the promotion; also recorded: additionally increases the promotion
[1]
  OK cell proliferation (optic density): only increased OK cell proliferation
[1]; listed as kaempferol
  OK cell proliferation (optic density): significantly increased; also recorded: showed dose response aspect
[2]
  fibroblast proliferation in compound conditioned-OKM: also did not promote HHF cell proliferation
[3]
  osteoblast (MC 3T3 E1) proliferation in compound conditioned-OKM compared with control OKM: increasing osteoblast proliferation with a dose response manner; also recorded: additionally promoted MC 3T3 E1 cell proliferation
[3]; listed as kaempferol
  osteoblast (MC 3T3 E1) proliferation in compound conditioned-OKM compared with control OKM: significantly increased compared with that in the control OKM
[9]; Western blot with anti-BMPR II
  quantity of BMPR II on OK cells (Western blot): increased the quantity of BMPR II on OK cells
[9]; immunostain with anti-BMP receptor II
  density of BMPR II on OK cells (immunostain): increased the density of BMPR II on OK cells
[10]
  MC 3T3 E1 proliferation in control medium (CM) or fresh medium containing compound: did not promote MC 3T3 E1 and HHF cell proliferation

## COc1c(-c2ccc(O)cc2)oc2cc(O)cc(O)c2c1=O [isokaempferol, kaempferol-3-methyl ether]
[1]
  OK cell proliferation (optic density): did not increase OK cell proliferation
[1]; listed as kaempferol-3-methyl ether
  OK cell proliferation (optic density): showed no effect
[2]
  fibroblast proliferation in compound conditioned-OKM: do not increase human heard fibroblast proliferation
[3]
  osteoblast (MC 3T3 E1) proliferation in compound conditioned-OKM compared with control OKM: did not increase osteoblast proliferation

B1: BMP-7: Bone Morphogenic Protein 7, secreted protein (protein, UniProt P18075 293-431, looked up)
Bone morphogenetic protein 7: STGSKQRSQNRSKTPKNQEALRMANVAENSSSDQRQACKKHELYVSFRDLGWQDWIIAPEGYAAYYCEGECAFPLNSYMNATNHAIVQTLVHFINPETVPKPCCAPTQLNAISVLYFDDSSNVILKKYRNMVVRACGCH
[11]
  effect on osteoporosis associated with renal failure: benefit
[12]
  prevention of renal failure: prevent renal failure
